Patent US20240366594A1, “Small Molecule Inhibitors of Formation of Neutrophil-Derived Extracellular Traps (NETosis) and Uses Thereof” (The Brigham and Women's Hospital, Inc., priority 2021, published 2024)

Legend:
Murine neutrophils [1] = assay: Phagocytosis assay with fluorescent E. coli; type: cell-based, mouse; conditions: ricolinostat 10 μM, fluorescent E. coli 1 h; FIG. 1H
Description: (§1) FIGS. 1A-H. Class I/II HDACs drive NET formation • (A and B) Freshly purified human (A) or mouse (B) neutrophils were treated with the indicated HDAC inhibitors at different doses (10, 2, 0.4, 0.08 μM), or with GSK484 (10 μM), for 1 h and then stimulated with 1 μM PMA for 3 h. Cells were fixed and stained with anti-citrullinated histone H3 (CitH3) antibody. NETosis induction was measured as the level of anti-CitH3 fluorescent signal. PMA alone represents 100% of NET induction. “-”: Cells treated with the highest dose of the indicated drug but not activated with PMA. • (C and D) Human neutrophils were treated, or not, with ricolinostat or GSK484 and then stimulated with 1 μM PMA. NETosis induction was measured as area of nuclei stained with DAPI. (C) 3D reconstruction of nuclei in each treatment (grid size 7.8 μm). (D) Quantification of DAPI signal from multiple fields of view (D) (n=9 for unstimulated, not pretreated with any drug [NT] and ricolinostat, n=7 for GSK484). • (E and F) Human neutrophils were treated as in (C-D), and immunoblot analysis of the indicated proteins was performed. Relative quantification of band intensity was analyzed with ImageJ software (F). White violins plots depict the quantification of histone H3 acetylation; red violin plots depict the quantification of histone H3 citrullination. […] ROS production was measured by luminescence with luminol-HRP. […]

Murine neutrophils [2] = assay: ROS production (luminol-HRP luminescence) in murine neutrophils; type: cell-based, mouse; conditions: ricolinostat 10 μM, 1 μM PMA 3 h; FIG. 1G right
Description: as §1

mouse neutrophils = assay: Citrullinated histone H3 (CitH3) NET induction in PMA-stimulated mouse neutrophils; type: cell-based
Description: FIGS. 1A-H. Class I/II HDACs drive NET formation • (A and B) Freshly purified human (A) or mouse (B) neutrophils were treated with the indicated HDAC inhibitors at different doses (10, 2, 0.4, 0.08 μM), or with GSK484 (10 μM), for 1 h and then stimulated with 1 μM PMA for 3 h. Cells were fixed and stained with anti-citrullinated histone H3 (CitH3) antibody. NETosis induction was measured as the level of anti-CitH3 fluorescent signal. PMA alone represents 100% of NET induction. “-”: Cells treated with the highest dose of the indicated drug but not activated with PMA. • (C and D) Human neutrophils were treated, or not, with ricolinostat or GSK484 and then stimulated with 1 μM PMA. NETosis induction was measured as area of nuclei stained with DAPI. (C) 3D reconstruction of nuclei in each treatment (grid size 7.8 μm). (D) Quantification of DAPI signal from multiple fields of view (D) (n=9 for unstimulated, not pretreated with any drug [NT] and ricolinostat, n=7 for GSK484). • (E and F) Human neutrophils were treated as in (C-D), and immunoblot analysis of the indicated proteins was performed. Relative quantification of band intensity was analyzed with ImageJ software (F). White violins plots depict the quantification of histone H3 acetylation; red violin plots depict the quantification of histone H3 citrullination. Immunoblot in E is representative of four independent experiments. Gasdermin D NT, gasdermin D N terminal; pMLKL, phospho-MLKL. • (G) Human (left) or murine (right) neutrophils were treated, or not, with ricolinostat (10 μM) and then stimulated with 1 μM PMA for 3 h. ROS production was measured by luminescence with luminol-HRP. Histograms represent the total amount of ROS produced overtime. • (H) Murine neutrophils were treated, or not, with ricolinostat (10 μM) and then stimulated with fluorescent E. coli at the indicated multiplicity of infection (MOI) for 1 h. The histogram represents the percentage of neutrophils positive for E. coli staining. Graphs show mean±SEM. Statistics were calculated using one-way ANOVA (A, B, D) and two-way ANOVA (F, G, H) (*p<0.05; **p<0.01; ****p<0.0001. n.s., not significant). Statistics refers to the comparison with neutrophils stimulated with PMA alone (A, B). […]
FIGS. 5A-J. Class I/II HDACs drive NET formation. • A) Quantification of extracellular DNA released by neutrophils treated, or not, with 1 μM GSK484 for 1 h and then stimulated with 1 μM PMA for 4 hours. […] Extracellular DNA release was assessed in the supernatant 3 hours after PMA stimulation. […] NETosis induction was measured as level of anti-CitH3 fluorescent signal. […] NET induction was measured as in (C). […]

## O=C(CCCCCCNC(=O)c1cnc(N(c2ccccc2)c2ccccc2)nc1)NO [ricolinostat]
Murine neutrophils [1]
  bacterial phagocytosis (percentage of neutrophils positive for E. coli): excluded that ricolinostat administration altered
Murine neutrophils [2]
  reactive oxygen species (ROS) production: did not alter
Mouse neutrophils; drugs 10, 2, 0.4, 0.08 μM for 1 h, then 1 μM PMA 3 h, FIG. 1B
  release of CitH3 (NET induction): efficiently decreased
Mouse neutrophils; murine neutrophils, PMA, FIG. 5J
  NET formation (level of CitH3): inhibited NET formation to a comparable extent
